Tests used:
[1] = target: T1, Proto-oncogene tyrosine-protein kinase Src (Homo sapiens, UniProt P12931); experiment: Inhibition of binding to Src SH2 domain
[2] = target: T1, Proto-oncogene tyrosine-protein kinase Src; experiment: Binding affinity for Src SH2 domain

T1 sequence (P12931 2-536 limits assumed): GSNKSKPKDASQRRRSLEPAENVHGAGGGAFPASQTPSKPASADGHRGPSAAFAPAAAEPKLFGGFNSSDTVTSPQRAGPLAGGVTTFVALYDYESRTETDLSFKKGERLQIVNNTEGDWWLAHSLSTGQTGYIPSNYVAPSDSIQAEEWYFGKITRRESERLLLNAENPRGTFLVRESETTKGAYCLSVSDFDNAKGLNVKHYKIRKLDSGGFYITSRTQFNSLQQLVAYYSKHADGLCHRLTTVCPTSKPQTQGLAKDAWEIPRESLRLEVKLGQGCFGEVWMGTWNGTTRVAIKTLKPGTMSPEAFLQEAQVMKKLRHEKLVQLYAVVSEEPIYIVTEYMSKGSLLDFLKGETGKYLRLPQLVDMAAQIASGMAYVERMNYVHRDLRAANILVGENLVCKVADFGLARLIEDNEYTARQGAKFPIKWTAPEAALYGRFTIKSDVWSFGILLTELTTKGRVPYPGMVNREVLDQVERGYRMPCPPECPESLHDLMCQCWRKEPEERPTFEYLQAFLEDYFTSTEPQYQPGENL

| IC50 [1] [µM] | Compound | Kd [2] [µM] |
| --- | --- | --- |
| 769 | CC(=O)N[C@@H](Cc1ccc(OP(=O)(O)O)cc1)C(=O)NCc1cccc(CC2CCCCC2)c1 | – |
| 306 | CC[C@H](NC(=O)[C@H](Cc1ccc(OP(=O)(O)O)cc1)NC(C)=O)c1cccc(CC2CCCCC2)c1 | – |
| – | CC[C@H](C)[C@H](NC(=O)[C@H](CCC(=O)O)NC(=O)[C@H](CCC(=O)O)NC(=O)[C@@H](N)Cc1ccc(OP(=O)(O)O)cc1)C(=O)O | 0.1 |

— ChEMBL document CHEMBL1131840, “Structure-based design and synthesis of a novel class of Src SH2 inhibitors” (Bioorg Med Chem Lett, 1999)
